Source: patent US20250066328A1, “PARP7 INHIBITORS” (Gilead Sciences, Inc., priority 2023, published 2025)

What follows are molecules tested on STAT1 (phosphorylated at Tyr701) in NCI-H1373 cells (assay: Phospho-STAT1 (Tyr701) LANCE Ultra TR-FRET detection assay in NCI-H1373 cells). Settings: Homo sapiens, NCI-H1373, 48 h, 48 hours incubation, induction of pSTAT1, normalized to 10 uM positive control and DMSO, 4-parameter fit, read-out: NH1373 pSTAT1 EC50.
Format: cell-based
Method: Phospho-STAT1 (Tyr701 LANCE Ultra TR-FRET Detection Assay
LANCE Ultra phospho-STAT1 (Tyr701) kits are designed for the detection of phosphorylated STAT1 in cell lysates using a simple, homogeneous LANCE Ultra sandwich assay (Cat. #TRF4028M). This assay is intended for assessing compound induction of endogenous levels of cellular STAT1 (phosphorylated at Tyr701) in NCI-H1373 cells. The NCI-H1373 cells are cultured in RPMI 1640 media containing 10% heat inactivated FBS, GlutaMAX, 1% Penicillin-Streptomycin. An Echo acoustic liquid handler is used to transfer 60 nanoliters of compound dilutions using the Echo Qualified, 384-well polypropylene microplate clear flat bottom source plates into a Greiner (#781080) cell culture microplate. NCI-H1373 cells are seeded into these compound-spotted culture plates at 30,000 cells/well in a 60 uL volume in growth media. The plates are incubated in a 5% CO2 humidified incubator at 37° C. for 48 hours. […] Briefly, […] of supplemented lysis buffer is added to each well and allowed to shake for 1 hour at 400 rpm. Next, 5 ul of remixed antibody solutions (vol/vol) prepared in detection buffer are added to each well and allowed to incubate at room temperature overnight. After spinning the plate down at 300 rpm for 1 min, the plate is read on an EnVision plate reader set up for Eu^3+ Cryptate and fluorescence emission is measured at two different wavelengths (665 nm and 620 nm). The HTRF ratio is then calculated ([…]) for each well to determine the amount of pSTAT1 in the cell lysate, and the data is then normalized to 10 uM (S)-5-((1-(3-oxo-3-(4-(5-(trifluoromethyl)pyrimidin-2-yl)piperazin-1-yl)propoxy)propan-2-yl)amino)-4-(trifluoromethyl)pyridazin-3(2H)-one positive and DMSO negative controls. The values were then plotted as a function of compound concentration and a 4-parameter fit was applied to derive the EC50 values.
For `C[C@@H](C[C@H](F)Cn1ccc2cc(-c3ncc(C(C)(C)O)cn3)c(F)cc2c1=O)Nc1cn[nH]c(=O)c1C(F)(F)F` (single isomer, unassigned) [Example 9], the EC50 was 238 nM.
In the case of `O=c1[nH]ncc(NC(COC(F)F)C[C@@H](F)Cn2ccc3cc(-c4ncc(C(F)(F)F)cn4)c(F)cc3c2=O)c1C(F)(F)F` (stereo partly drawn) [Example 126, 2-[(2R)-5-(difluoromethoxy)-2-fluoro-4-[[6-oxo-5-(trifluoromethyl)-1H-pyridazin-4-yl]amino]pentyl]-7-fluoro-6-[5-(trifluoromethyl)pyrimidin-2-yl]isoquinolin-1-one], the EC50 is reported as 3.3 nM.
Work on `C[C@@H](C[C@H](F)Cn1ccc2cc(-c3ncc(S(C)(=O)=O)cn3)c(F)cc2c1=O)Oc1cn[nH]c(=O)c1C(F)(F)F` [Example 60] yielded an EC50 of 10.2 nM.
`C[C@@H](C[C@@H](F)Cn1ccc2cc(-c3ncc(C(F)CF)cn3)c(F)cc2c1=O)Nc1cn[nH]c(=O)c1C(F)(F)F` (stereo partly drawn) [Example 94] was tested, and the EC50 was 4.58 nM.
`C[C@@H](C[C@@H](F)Cn1cc(F)c2cc(-c3ncc(C(C)(C)O)cn3)c(F)cc2c1=O)Oc1cn[nH]c(=O)c1C(F)(F)F` (single isomer, unassigned) [Example 56] gave an EC50 of 1.51 nM.
With `C[C@@H](C[C@@H](F)Cn1ccc2cc(-c3ccccn3)c(F)cc2c1=O)Nc1cn[nH]c(=O)c1C(F)(F)F` [Example 74] the EC50 was 6.56 nM.
`Cc1cnc(-c2cc3ccn(C[C@H](F)C[C@H](C)Nc4cn[nH]c(=O)c4C(F)(F)F)c(=O)c3cc2F)nc1` [Example 110] gave an EC50 of 1.11 nM.
`C[C@@H](CC(F)Cn1cnc2cc(-c3ncc(C(C)(C)O)cn3)c(F)cc2c1=O)Oc1cn[nH]c(=O)c1C(F)(F)F` (stereo partly drawn) [Example 38] showed an EC50 of 42.4 nM.
Molecule `C[C@@H](C[C@@H](F)Cn1ccc2cc(-c3ncc([C@](C)(O)C(F)F)cn3)c(F)cc2c1=O)Nc1cn[nH]c(=O)c1C(F)(F)F` [Example 87] has an EC50 of 5.36 nM.
For `COc1cnc(-c2cc3c(F)cn(C[C@H](F)C[C@H](C)Oc4cn[nH]c(=O)c4C(F)(F)F)c(=O)c3cc2F)nc1` [Example 53], the EC50 was 202 nM.
Work on `C[C@@H](CC(F)Cn1ccc2cc(-c3ncc(C(F)(F)F)cn3)c(F)cc2c1=O)Nc1cn[nH]c(=O)c1C(F)(F)F` (stereo partly drawn) [Example 1, 7-fluoro-2-[(4S)-2-fluoro-4-[[6-oxo-5-(trifluoromethyl)-1H-pyridazin-4-yl]amino]pentyl]-6-[5-(trifluoromethyl)pyrimidin-2-yl]isoquinolin-1-one] yielded an EC50 of 1.88 nM.
Molecule `C[C@@H](C[C@@H](F)Cn1ccc2cc(-c3nccs3)c(F)cc2c1=O)Nc1cn[nH]c(=O)c1C(F)(F)F` [Example 103] has an EC50 of 138 nM.
For `C[C@@H](C[C@@H](F)Cn1ccc2cc(-c3ncc4c(n3)NC(=O)C4(C)C)c(F)cc2c1=O)Nc1cn[nH]c(=O)c1C(F)(F)F` [Example 89], the EC50 was 12 nM.
With `CC(C)(O)c1cnc(-c2cc3ccn(CC(F)CC(COC(F)F)Nc4cn[nH]c(=O)c4C(F)(F)F)c(=O)c3cc2F)nc1` (stereo not drawn) [Example 129] the EC50 was 8.24 nM.
Molecule `O=c1[nH]ncc(O[C@@H](CCCn2ccc3cc(-c4ncc(C(F)(F)F)cn4)c(F)cc3c2=O)COC(F)F)c1C(F)(F)F` [Example 120] has an EC50 of 1000 nM.
Molecule `C[C@@H](C[C@@H](F)Cn1ccc2cc(-c3ncc(F)cn3)c(F)cc2c1=O)Nc1cn[nH]c(=O)c1C(F)(F)F` [Example 108] has an EC50 of 2.9 nM.
For `COc1cnc(-c2cc3ccn(C[C@H](F)C[C@H](C)Oc4cn[nH]c(=O)c4C(F)(F)F)c(=O)c3cc2F)nc1` [Example 45], the EC50 was 1.01 nM.
In the case of `C[C@@H](C[C@@H](F)CN1CCc2cc(-c3ncc(C(F)(F)F)cn3)c(F)cc2C1=O)Nc1cn[nH]c(=O)c1C(F)(F)F` [Example 132, 7-fluoro-2-[(2R,4S)-2-fluoro-4-[[6-oxo-5-(trifluoromethyl)-1H-pyridazin-4-yl]amino]pentyl]-6-[5-(trifluoromethyl)pyrimidin-2-yl]-3,4-dihydroisoquinolin-1-one], the EC50 is reported as 2.7 nM.
`CC(C)(O)c1cnc(-c2cc3ccn(CCCC(COC(F)F)Oc4cn[nH]c(=O)c4C(F)(F)F)c(=O)c3cc2F)nc1` (stereo not drawn) [Example 33, 2-(5-(difluoromethoxy)-4-((6-oxo-5-(trifluoromethyl)-1,6-dihydropyridazin-4-yl)oxy)pentyl)-7-fluoro-6-(5-(2-hydroxypropan-2-yl)pyrimidin-2-yl)isoquinolin-1(2H)-one] showed an EC50 of 23.3 nM.
For `CC(C)(O)c1cnc(-c2cc3ccn(C[C@H](F)C[C@H](COC(F)F)Oc4cn[nH]c(=O)c4C(F)(F)F)c(=O)c3cc2F)nc1` [Example 122], the EC50 was 1.97 nM.
Molecule `C[C@@H](CC(F)Cn1ccc2cc(-c3ncc(C(C)(C)O)cn3)c(F)cc2c1=O)Oc1cn[nH]c(=O)c1C(F)(F)F` (stereo partly drawn) [Example 37] has an EC50 of 4.11 nM.
`C[C@@H](C[C@@H](F)Cn1ccc2cc(-c3ncc([C@H](F)CF)cn3)c(F)cc2c1=O)Nc1cn[nH]c(=O)c1C(F)(F)F` [Example 93] showed an EC50 of 1000 nM.
`C[C@@H](C[C@@H](F)Cn1ccc2cc(-c3ncc(C(C)(C)O)cn3)c(F)c(F)c2c1=O)Nc1cn[nH]c(=O)c1C(F)(F)F` [Example 28] was tested, and the EC50 was 6.51 nM.
For `C[C@@H](C[C@@H](F)Cn1ccc2cc(-c3ncccn3)c(F)cc2c1=O)Nc1cn[nH]c(=O)c1C(F)(F)F` [Example 109], the EC50 was 5.63 nM.
Molecule `C[C@@H](C[C@@H](F)Cn1ccc2cc(-c3ccc(C(F)(F)F)cn3)c(F)cc2c1=O)Nc1cn[nH]c(=O)c1C(F)(F)F` [Example 76] has an EC50 of 2.59 nM.
`C[C@@H](C[C@@H](F)Cn1ccc2cc(-c3ncc(C(C)(F)F)cn3)c(F)c(F)c2c1=O)Nc1cn[nH]c(=O)c1C(F)(F)F` [Example 98] showed an EC50 of 0.97 nM.
`COc1cnc(-c2cc3ccn(C[C@@H](F)C[C@H](C)Nc4cn[nH]c(=O)c4C(F)(F)F)c(=O)c3cc2F)nc1` (single isomer, unassigned) [Example 7] showed an EC50 of 152 nM.
`C[C@@H](CC(F)Cn1ccc2cc(-c3ncc(C(F)(F)F)cn3)c(F)cc2c1=O)Oc1cn[nH]c(=O)c1C(F)(F)F` (stereo partly drawn) [Example 11, 7-fluoro-2-((4S)-2-fluoro-4-((6-oxo-5-(trifluoromethyl)-1,6-dihydropyridazin-4-yl)oxy)pentyl)-6-(5-(trifluoromethyl)pyrimidin-2-yl)isoquinolin-1(2H)-one] showed an EC50 of 3.61 nM.
With `COc1cnc(-c2cc3ccn(C[C@H](F)C[C@H](C)Oc4cn[nH]c(=O)c4C(F)(F)F)c(=O)c3cc2F)nc1N` [Example 40] the EC50 was 14.7 nM.
`C[C@@H](C[C@H](O)Cn1ccc2cc(-c3ncc(C(F)(F)F)cn3)c(F)cc2c1=O)Oc1cn[nH]c(=O)c1C(F)(F)F` [Example 18] was tested, and the EC50 was 1.81 nM.
`C[C@@H](C[C@@H](F)Cn1ccc2cc(-c3ncc(C(F)(F)F)cn3)c(F)c(F)c2c1=O)Nc1cn[nH]c(=O)c1C(F)(F)F` [Example 32] was tested, and the EC50 was 0.912 nM.
Molecule `C[C@@H](C[C@@H](O)Cn1ccc2cc(-c3ncc(C(F)(F)F)cn3)c(F)cc2c1=O)Oc1cn[nH]c(=O)c1C(F)(F)F` (single isomer, unassigned) [Example 17] has an EC50 of 23.3 nM.
With `C[C@@H](C[C@@H](F)Cn1ccc2cc(-c3ncc([C@@](C)(O)C(F)F)cn3)c(F)cc2c1=O)Nc1cn[nH]c(=O)c1C(F)(F)F` [Example 86] the EC50 was 10.1 nM.
With `C[C@@H](C[C@@H](F)Cn1cc(F)c2cc(-c3ncc(C(F)F)cn3)c(F)cc2c1=O)Oc1cn[nH]c(=O)c1C(F)(F)F` [Example 52] the EC50 was 67.9 nM.
In the case of `C[C@@H](C[C@@H](F)Cn1ccc2cc(-c3ncc(C(F)F)c(N)n3)c(F)cc2c1=O)Oc1cn[nH]c(=O)c1C(F)(F)F` (single isomer, unassigned) [Example 14], the EC50 is reported as 8.34 nM.
In the case of `C[C@@H](C[C@@H](F)Cn1ccc2cc(-c3ncc(C(F)(F)F)cn3)c(F)cc2c1=O)Nc1cn[nH]c(=O)c1C(F)(F)F` [Example 2], the EC50 is reported as 0.947 nM.
